From US9394282B2, “Pyrazole carboxamides as Janus kinase inhibitors” (Merck Sharp & Dohme Corp., priority 2011, dated 2016)
pIC50: −log10 of the molar value. Values belong to the compound of their own block, whether it stands above or below them.

Tests used:
JAK1 = JAK1 (Homo sapiens (Human), UniProt P23458); test: Jak biochemical HTRF assay, JAK1; settings: recombinant purified GST-tagged catalytic domain; HTRF format; [ATP] 31.8 μM
Source text: (§1) Jak Biochemical HTRF Assay Protocol
(§2) Subsequent reagent additions employed an Agilent Bravo.

JAK2 = JAK2 (Homo sapiens (Human), UniProt O60674); test: Jak biochemical HTRF assay, JAK2; settings: recombinant purified GST-tagged catalytic domain, HTRF format
Chain of JAK2 (O60674 849-1124): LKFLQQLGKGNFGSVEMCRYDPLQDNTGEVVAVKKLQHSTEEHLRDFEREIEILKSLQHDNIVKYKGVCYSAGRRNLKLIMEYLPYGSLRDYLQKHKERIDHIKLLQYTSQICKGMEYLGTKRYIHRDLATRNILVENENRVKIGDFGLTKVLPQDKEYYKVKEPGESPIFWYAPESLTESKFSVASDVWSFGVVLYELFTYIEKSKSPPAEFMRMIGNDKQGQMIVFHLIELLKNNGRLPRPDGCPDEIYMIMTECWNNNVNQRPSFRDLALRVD
Source text: as §1, §2

Chain of JAK1 (P23458 875-1153): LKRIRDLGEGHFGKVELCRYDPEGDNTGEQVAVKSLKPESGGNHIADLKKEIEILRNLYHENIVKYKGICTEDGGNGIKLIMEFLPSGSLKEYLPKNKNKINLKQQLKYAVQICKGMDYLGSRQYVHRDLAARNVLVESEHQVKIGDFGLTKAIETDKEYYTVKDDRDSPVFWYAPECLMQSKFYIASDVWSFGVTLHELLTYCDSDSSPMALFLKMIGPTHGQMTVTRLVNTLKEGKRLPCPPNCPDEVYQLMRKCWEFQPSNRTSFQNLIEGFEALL

Compound: C[C@@]1(C#N)CS(=O)(=O)C[C@@H]1n1cc(C(N)=O)c(Nc2ccc(F)cc2)n1 (single isomer, unassigned) [Example 14-1, 1-((3R,4R or 3S,4S)-4-Cyano-4-methyl-1,1-dioxidotetrahydrothiophen-3-yl)-3-((4-fluorophenyl)amino)-1H-pyrazole-4-carboxamide]
pIC50 (JAK1): 8.70
pIC50 (JAK2; [ATP] […]): 7.74

Compound: C[C@@]1(C#N)CS(=O)(=O)C[C@@H]1n1cc(C(N)=O)c(Nc2ccc(F)cc2)n1 (single isomer, unassigned) [Example 14-2, 1-((3R,4R or 3S,4S)-4-Cyano-4-methyl-1,1-dioxidotetrahydrothiophen-3-yl)-3-((4-fluorophenyl)amino)-1H-pyrazole-4-carboxamide]
pIC50 (JAK1): 7.08
pIC50 (JAK2; [ATP] […]): 6.53

Compound: Cc1ncoc1CN1CC[C@@H](C#N)[C@H](n2cc(C(N)=O)c(Nc3ccc(F)cc3)n2)C1 [Example 7-2, 1-{(3S,4R, 3R,4S)-4-cyano-1-[(4-methyl-1,3-oxazol-5-yl)methyl]piperidin-3-yl}-3-[(4-fluorophenyl)amino]-1H-pyrazole-4-carboxamide]
pIC50 (JAK1): 9.22
pIC50 (JAK2; [ATP] […]): 8.10

Compound: C[C@]1(C#N)CS(=O)(=O)CC1n1cc(C(N)=O)c(Nc2ccc(F)cc2)n1 (stereo partly drawn) [Example 13-5, 1-((3S,4R or 3R4S)-4-cyano-4-methyl-1,1-dioxidotetrahydrothiophen-3-yl)-3-((4-fluorophenyl)amino)-1H-pyrazole-4-carboxamide]
pIC50 (JAK1): 9.30
pIC50 (JAK2; [ATP] […]): 8.22

More lines, now with the values ahead:

pIC50 (JAK1): 8.22
pIC50 (JAK2; [ATP] 8.5 μM): 7.68
Compound: CC1(c2ccc(Nc3nn([C@@H]4COCC[C@H]4C#N)cc3C(N)=O)cc2)COC1 (single isomer, unassigned) [Example 9-26, 1-[(3S,4R or 3R,4S)-4-cyanotetrahydro-2H-pyran-3-yl]-3-{[4-(3-methyloxetan-3-yl)phenyl]amino}1H-pyrazole-4-carboxamide]

pIC50 (JAK1): 9.10
pIC50 (JAK2; [ATP] 8.5 μM): 8.30
Compound: N#C[C@H]1CCOC[C@@H]1n1cc(C(N)=O)c(Nc2ccc(F)nc2)n1 (single isomer, unassigned) [Example 9-29, 1-[(3R,4S or 3S,4R)-4-cyanotetrahydro-2H-pyran-3-yl]-3-[(6-fluoropyridin-3-yl)amino]-1H-pyrazole-4-carboxamide]

pIC50 (JAK1): 7.08
pIC50 (JAK2; [ATP] 8.5 μM): 6.51
Compound: N#C[C@H]1CCOC[C@@H]1n1cc(C(N)=O)c(Nc2cncc(F)c2)n1 (single isomer, unassigned) [Example 9-30, 1-[(3R,4S or 3S,4R)-4-cyanotetrahydro-2H-pyran-3-yl]-3-[(5-fluoropyridin-3-yl)amino]-1H-pyrazole-4-carboxamide]

pIC50 (JAK1): 9.05
pIC50 (JAK2; [ATP] 8.5 μM): 8.15
Compound: N#C[C@@H]1CCOC[C@H]1n1cc(C(N)=O)c(Nc2cncc(F)c2)n1 (single isomer, unassigned) [Example 9-31, 1-[(3S,4R or 3R,4S)-4-cyanotetrahydro-2H-pyran-3-yl]-3-[(5-fluoropyridin-3-yl)amino]-1H-pyrazole-4-carboxamide]

pIC50 (JAK1): 10.15
pIC50 (JAK2; [ATP] […]): 9.15
Compound: N#Cc1ccc(Nc2nn([C@H]3COCC[C@@H]3C#N)cc2C(N)=O)cc1 (single isomer, unassigned) [Example 9-35, 3-[(4-cyanophenyl)amino]-1-[(3R, 4S or 3S,4R)-4-cyanotetrahydro-2H-pyran-3-yl]-1H-pyrazole-4-carboxamide]

pIC50 (JAK1): 9.22
pIC50 (JAK2; [ATP] 8.5 μM): 8.52
Compound: N#C[C@H]1CCOC[C@@H]1n1cc(C(N)=O)c(Nc2ccc(OCC(F)(F)F)nc2)n1 (single isomer, unassigned) [Example 9-36, 1-[(3R,4S or 3S,4R)-4-cyanotetrahydro-2H-pyran-3-yl]-3-{[6-(2,2,2-trifluoroethoxy)pyridin-3-yl]amino}-1H-pyrazole-4-carboxamide]

pIC50 (JAK1): 8.30
pIC50 (JAK2; [ATP] […]): 7.18
Compound: N#C[C@@H]1CN(CC2CCC2)CC[C@H]1n1cc(C(N)=O)c(Nc2ccc(F)cc2)n1 [Example 6-40, 1-[(3R,4R)-3-cyano-1-(cyclobutylmethyl)piperidin-4-yl]-3-[(4-fluorophenyl)amino]-1H-pyrazole-4-carboxamide]
